These results are taken from patent publication US20260015363A1, “SUBSTITUTED PYRIMIDINE-FUSED RING INHIBITOR, METHOD FOR PREPARING SAME, AND USE THEREOF” (Suzhou Zelgen Biopharmaceuticals Co., Ltd., priority 2022, published 2026).

Assay [1] has as its system AsPC-1 (G12D). The assay can be described thus: KRAS mutant cell proliferation inhibition assay (CellTiter-Glo 3D), AsPC-1. Type of assay: cell-based, human. As to conditions: AsPC-1 (G12D) cells, 7 days. How it is done:
(§1) Positive control: MRTX1133
(§2) • (a) The cells were thawed in T75 cell culture flasks: • (b) When 80%-90% cell confluence was achieved, the cells were passaged.
(§3) The diluted test compound was added to a 384-well cell culture plate using a nanoliter pipetting system, and replicate wells were set. An equal volume of medium was added to the positive control group; an equal volume of DMSO was added to the negative control group. The plate was centrifuged at 1000 rpm at room temperature for 1 min.
(§4) The cells were seeded into a) 384-well culture plate. An equal volume of cells was added to the negative control group, and only an equal volume of medium was added to the positive control group. The plate was centrifuged at 1000 rpm at room temperature for 1 min. The final DMSO concentration in the final compound was 0.5%. The plate was incubated in a thermostatic incubator at 37° C. with 5% CO2 for 7 days.
(§5) CellTiter-Glo® 3D was added to b) 384-well cell culture plate at 20 μL/well. The plate was shaken at 320 rpm in the dark for 20 min, and incubated at room temperature in the dark for 2 h. The luminescence values were read using an Envision multi-mode microplate reader.
(§6) The inhibition rates (IRs) of the test compounds were calculated according to the following formula: IR (%)=(1−(RLU compound−RLU blank control)/(RLU vehicle control−RLU blank control))×100%. The inhibition rates of the compounds at different concentrations were calculated in Excel, and then inhibition curves were plotted and relevant parameters including minimum inhibition rate, maximum inhibition rate and IC50 were calculated using GraphPad Prism software.
In general terms: Cellular ATP, detected with luciferase, serves as a proxy for viable cell number.

Assay [2] concerns H727 (G12V). The assay can be described thus: KRAS mutant cell proliferation inhibition assay (CellTiter-Glo 3D), H727. As to conditions: H727 (G12V) cells, 7 days. Type of assay: cell-based, human. How it is done:
as §1, §2, §3, §4, §5, §6

Assay [3] deals with PSN-1 (G12R). The assay can be described thus: KRAS mutant cell proliferation inhibition assay (CellTiter-Glo 3D), PSN-1. It is filed as cell-based. As to conditions: PSN-1 (G12R) cells, 7 days. How it is done: as §1, §2, §3, §4, §5, §6
Assay [4] relates to MNK1 (WT). Description: Cell proliferation inhibition assay (CellTiter-Glo 3D), MNK1. It is filed as cell-based, human. The following applies: MNK1 (WT) cells, 7 days. How it is done:
as §1, §2, §3, §4, §5, §6

Where a name gives a salt, the structure may show the parent alone. Read-outs that look alike come from different tables or passages of the source.

For orientation: IC50 means the midpoint of a concentration-inhibition curve. Turning to `CCc1c(F)ccc2cc(O)cc(-c3ncc4c(N5CCC[C@@](C)(O)C5)nc(OCC56CCCN5CC5(C6)CC5(F)F)nc4c3F)c12` (stereo in doubt) [Example A-13B, (R)-1-(2-(((trans)-2,2-difluorodihydro-l′H,3′H-spiro[cyclopropane-1,2′-pyrrolizin]-7a′ (5′H)-yl)methoxy)-7-(8-ethyl-7-fluoro-3-hydroxynaphthalen-1-yl)-8-fluoropyrido[4,3-d]pyrimidin-4-yl)-3-methylpiperidin-3-ol], the IC50 was determined as 18.8 nM in assay [1], 51.7 nM in assay [2], 506 nM in assay [3] (read-out: PSN1 IC50) and 12.9 nM in assay [4].

Take `CCc1c(F)ccc2cc(O)cc(N3CCc4c(nc(OCC56CCCN5C[C@@]5(C6)CC5(F)F)nc4N4CCCn5nc(C(=O)N(C)C)cc5C4)C3)c12` (stereo in doubt) [Example B-14, 5-(2-(((1R,7a′R)-2,2-Difluorodihydro-1′H,3′H-spiro[cyclopropane-1,2′-pyrrolizin]-7a′ (5′H)-yl)methoxy)-7-(8-ethyl-7-fluoro-3-hydroxynaphthalen-1-yl)-5,6,7,8-tetrahydropyrido[3,4-d]pyrimidin-4-yl)-N,N-dimethyl-5,6,7,8-tetrahydro-4H-pyrazolo[1,5-a][1,4]diazepine-2-carboxamide hydrochloride]: the IC50 in assay [1] (Homo sapiens, ASPC1, 168 h) was 26.9 nM; in assay [2] (Homo sapiens, NCI-H727, 168 h), 127 nM; in assay [3] (Homo sapiens, PSN1, 168 h), 7560 nM; in assay [4] (Homo sapiens, 168 h), 92.3 nM.

As for `Nc1cc(Cl)c(C(F)(F)F)c(-c2ncc3c(N4CCCC5(CCO5)C4)nc(OC[C@@]45CCCN4C[C@@]4(CC4(F)F)C5)nc3c2F)c1` (stereo partly drawn) [Example A-14, 3-Chloro-5-(2-(((1S,7a'S)-2,2-difluorodihydro-1′H,3′H-spiro[cyclopropane-1,2′-pyrrolizin]-7a′ (5′H)-yl)methoxy)-8-fluoro-4-(1-oxa-6-azaspiro[3.5]nonan-6-yl)pyrido[4,3-d]pyrimidin-7-yl)-4-(trifluoromethyl)aniline], the IC50 was 61.1 nM in assay [1] (Homo sapiens, ASPC1, 168 h); 242 nM in assay [2] (Homo sapiens, NCI-H727, 168 h); above 10000 nM in assay [3] (Homo sapiens, PSN1, 168 h); 133 nM in assay [4] (Homo sapiens, 168 h).

Regarding `C#Cc1c(F)ccc2cc(O)cc(-c3ncc4c(N5CCCC6(CCO6)C5)nc(OC[C@@]56CCCN5C[C@@]5(CC5(F)F)C6)nc4c3F)c12` (some centres unmarked) [Example A-15, 4-(2-(((1.S,7a'S)-2,2-difluorodihydro-1′H,3′H-spiro[cyclopropane-1,2′-pyrrolizin]-7a′ (5′H)-yl)methoxy)-8-fluoro-4-(1-oxa-6-azaspiro[3.5]nonan-6-yl)pyrido[4,3-d]pyrimidin-7-yl)-5-ethynyl-6-fluoronanhthalen-2-ol], the IC50 in assay [1] (Homo sapiens, ASPC1, 168 h) was 164 nM; in assay [2] (Homo sapiens, NCI-H727, 168 h) it was 450 nM; in assay [3] (Homo sapiens, PSN1, 168 h) it was above 10000 nM; in assay [4] (Homo sapiens, 168 h), 171 nM.

As for `CCc1c(F)ccc2cc(O)cc(-c3ncc4c(N5CCCn6nc(C(=O)N(C)C)cc6C5)nc(OC[C@@]56CCCN5C[C@@]5(CC5(F)F)C6)nc4c3F)c12` [Example A-24, 5-(2-(((1S,7a'S)-2,2-Difluorodihydro-1′H,3′H-spiro[cyclopropane-1,2′-pyrrolizin]-7a′ (5′H)-yl)methoxy)-7-(8-ethyl-7-fluoro-3-hydroxynaphthalen-1-yl)-8-fluoropyrido[4,3-d]pyrimidin-4-yl)-N,N-dimethyl-5,6,7,8-tetrahydro-4H-pyrazolo[1,5-a][1,4]diazepine-2-carboxamide], the half-maximal inhibitory concentration (IC50) was 11.1 nM in assay [1] (Homo sapiens, ASPC1, 168 h); 101 nM in assay [2] (Homo sapiens, NCI-H727, 168 h); above 10000 nM in assay [3] (Homo sapiens, PSN1, 168 h); 19.7 nM in assay [4] (Homo sapiens, 168 h).
